Measured values as given in US10556866B2, “ROR gamma (RORγ) modulators” (LEAD PHARMA HOLDING B.V., priority 2015, dated 2020).

Columns and labels:
RORγ = target: T1, RORγ (Homo sapiens, UniProt P51449); test: RORγ GAL4 reporter gene assay (luciferase readout); format: cell-based; settings: inhibition of RORγ (GAL4-RORγ-LBD) in 293FT cells, luciferase signal; read-out: mean pIC50 (converted)
T1 construct: expressed in transfected cells; host or cells: 293FT cells (Invitrogen), expression vector pFN26A (Promega)
T1 sequence (P51449 269-508 limits assumed): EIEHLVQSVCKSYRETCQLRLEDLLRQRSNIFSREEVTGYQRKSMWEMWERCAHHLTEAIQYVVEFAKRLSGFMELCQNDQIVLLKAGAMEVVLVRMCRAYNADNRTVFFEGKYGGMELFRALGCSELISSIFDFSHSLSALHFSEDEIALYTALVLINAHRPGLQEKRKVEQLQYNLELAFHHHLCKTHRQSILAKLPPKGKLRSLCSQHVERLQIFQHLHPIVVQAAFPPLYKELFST
Description: Example inhibitors 1-38 were tested for their ability to inhibit RORγ activity in a RORγ GAL4 reporter gene assay. The assay procedure and results are described below.
A GAL4 one-hybrid reporter system employing luciferase readout was established to determine inhibition of RORγ in 293FT cells. The RORγ ligand-binding domain (LBD) was fused to the yeast GAL4 DNA binding domain (DBD) and placed under the control of the human cytomegalovirus (CMV) immediate early promoter, using expression vector pFN26A (Promega) and standard recombinant DNA cloning methods. To serve as a control in the assay, a similar vector was generated in which the GAL4-DBD was fused to Herpes simplex virus protein 16 (VP16), a constitutive transcriptional activator.
To monitor the inhibitory effect of compounds on RORγ, a transcriptional reporter construct was used. The pGL4.35 vector (Promega) contains nine copies of the GAL4 Upstream Activator Sequence (UAS). This sequence drives the transcription of the luciferase reporter gene luc2P in response to binding of a fusion protein containing the GAL4 DNA binding domain, as for example expressed by the GAL4-RORγ-LBD and GAL4-VP16 expression vectors described above. To allow a GAL4 fusion protein to drive the expression of the luciferase reporter, the pGL4.35 expression vector and the appropriate GAL4 fusion protein expression vector were bulk transfected in the 293FT cells using standard transfection techniques.
The day after transfection, cells were plated into 96 well plates, test compound was added and the plates were incubated overnight. Subsequently, the firefly luciferase activity was quantified using luciferase detection reagent and luminescence readout.
293FT cells (Invitrogen) were transfected with a GAL4 fusion protein expression vector (as described above) and the transcriptional reporter construct (pGL4.35, Promega). 60 μL of TransIT-293 transfection reagent (Mirus Bio) was added drop wise to 1500 μl Opti-MEM I Reduced Serum Medium (Invitrogen) and incubated at RT (RT) for 5 to 20 minutes. 1500 μL of this reagent mixture was added to 5 μg of GAL4 fusion protein expression vector and 5 μg of the transcriptional reporter construct, and incubated at RT for 20 minutes.
To harvest 293FT cells from a T75 flask, first the culture medium was taken off the cells. Subsequently, the cells were washed with Phosphate Buffered Saline (PBS) (Lonza), after which the PBS was removed. To dissociate the cells, 1 ml of TrypLE Express (Invitrogen) was added to the flask, followed by incubation at RT until the cells visually started to detach. Cells were collected in 5 mL of assay medium (DMEM culture medium (Lonza), 10% dialyzed FBS (Invitrogen) and Pen/Strep (Lonza)) to achieve a single cell suspension. 10×10^6 cells were spun down and re-suspended in 10 mL of assay medium. Subsequently, the cell suspension was added to the transfection mix tube, and then transferred as a whole to a T75 flask (Greiner), followed by overnight (16-24 hours) incubation at 37° C. and 5% CO2.
For compound screening, the cells were harvested (as described above) and counted. 13×10^6 cells were spun down, the supernatant was aspirated and the cells were re-suspended in 17.3 mL of assay medium obtaining a cell suspension of 0.75×10^6 cells/mL. 80 μL of cell suspension (60,000 cells) was plated per well into a white, flat bottom, tissue culture treated, 96 well screening plates (Greiner).
Test compounds were diluted, starting from a 10 mM dimethylsulfoxide (DMSO) stock solution, to serial dilutions in DMSO at 500× the final test concentration. Subsequently, these solutions were diluted to 5× the final test concentration in two 10-fold-dilution steps in assay medium. The final DMSO concentration of the 5× test compound solution was 1%. 20 μL of the 5× test compound solution was added to each test well of the 96 well plate previously plated with 80 μl cell suspension, resulting in the final test concentration with 0.2% DMSO. […]

[1] = tested on: IL-17A production in anti-CD3/anti-CD28 stimulated peripheral blood mononuclear cells (PBMCs); test: Peripheral blood mononuclear cell (PBMC) IL-17 assay; format: cell-based; settings: 120 h, inhibition of IL-17A production, human PBMCs, 5 days, IL-17 ELISA, read-out: mean pIC50 (converted)
Description: Example inhibitor 5 was tested for its ability to inhibit the IL-17A production in anti-CD3/anti-CD28 stimulated peripheral blood mononuclear cells (PBMCs) isolated from human blood. The assay procedure and results are described below.
This assay is designed to measure the levels of IL-17A secreted from anti-CD3/anti-CD28 stimulated PBMCs with the aim of measuring RORγ mediated inhibition of IL-17A production.
The assay medium consists of 90% RPMI 1640 (Lonza), 10% heat inactivated fetal bovin serum (FBS, Lonza) and 100 U/mL penicillin/streptomycin solution.
Anti-CD3 antibody (BD Pharmingen) was diluted to 10 μg/ml in PBS (Lonza). 30 μL of 10 μg/ml anti-CD3 solution was added to the inner 60 wells, excluding any negative control wells, of a 96-well cell culture treated U-bottom plate (Greiner). Plates were incubated overnight (16-24 hours) at 37° C. and 5% CO2. […]
After incubation the plates were spun down at 1500 rpm for 4 minutes and the supernatant was collected. Subsequently, the IL-17A levels in the supernatants was determined using an IL-17 ELISA kit (human IL-17 DuoSet, R&D systems) according to manufacturer's protocol.
The half maximum inhibitory concentration (IC50) values for the test compounds were calculated from the IL-17A signal using GraphPad Prism software (GraphPad Software).

Compound	IC50 (RORγ) [nM]	IC50 [1] [nM]
O=C(NCc1ccc(S(=O)(=O)CC2CC2)cc1)c1ccc(C(O)(C(F)F)C(F)(F)F)cc1 (stereo not drawn) [Example 5, N-[[4-(cyclopropylmethylsulfonyl)phenyl]methyl]-4-[1-(difluoromethyl)-2,2,2-trifluoro-1-hydroxy-ethyl]benzamide]	≤ 1000	100
Cc1cc(C(O)(c2ccc(C(=O)NCc3ccc(S(=O)(=O)CC4CC4)cc3)cc2)C(C)(C)C)no1 (stereo not drawn) [Example 38, N-[(4-(cyclopropylmethylsulfonyl)phenyl)methyl]-4-[1-hydroxy-2,2-dimethyl-1-(5-methylisoxazol-3-yl)propyl]benzamide]	≤ 100	–
